Measured values from patent publication US6372297B1, “Wood preservative oxathiazines” (Uniroyal Chemical Company, Inc., priority 1993, dated 2002).
In brackets after ≈: the same amount, converted by molar mass. Read-outs that look alike come from different tables or passages of the source.

Assays:
[1] = system: molds and blue-stain fungi; assay: In vitro activity against molds and blue-stain fungi, poison plate assay (MIC); type: cell-based; conditions: malt extract agar, complete inhibition
Protocol: The effect of the representative compounds on the growth of certain molds and blue-strain fungi were determined using a poison plate assay according to the following procedure: The solutions of the representative compounds prepared above were further diluted with sterile water to desired concentrations and poured into Petri dishes. Malt extract agar medium was then added aseptically to the Petri dishes and to Petri dishes containing no compound (controls). The Petri dishes were then shaken to provide a uniform distribution of the agar medium. Each Petri dish containing compound and each control Petri dish, was then inoculated with a fungus and incubated for a period of time sufficient to permit complete growth of the fungus in the respective control Petri dish. The Petri dishes containing compound were then examined to determine the amount of inhibition of fungi for each concentration of compound tested.

[2] = system: blue-stain fungi and molds; assay: Activity against blue-stain fungi and molds in a stick test (threshold concentrations); conditions: beech sticks, 22° C., 90% relative humidity; for Threshold concentration (ppm), A. niger, score 0 / Threshold concentration (ppm), Aureobasidium, score 0 / Threshold concentration (ppm), Sclerophoma, score 0 / Threshold concentration (ppm), Trichoderma, score 0: minimum concentration to obtain score 0; for Threshold concentration (ppm), A. niger, score 1-2 / Threshold concentration (ppm), Aureobasidium, score 1-2 / Threshold concentration (ppm), Sclerophoma, score 1-2 / Threshold concentration (ppm), Trichoderma, score 1-2: minimum concentration to obtain score 1-2
Protocol: Representative compounds of this invention were dissolved in 50% ethanol. Each compound was then diluted serially using 50% ethanol. […] After three (3) hours, the solutions containing the test compounds were poured off and the treated sticks were allowed to dry in a sterile laminar air flow. Each treated stick was then placed in a Petri dish which had been previously seeded with inoculum. Two drops of a test fungal or spore suspension were pipetted onto the upper surface of each treated stick. The Petri dishes containing the treated sticks were incubated at 22° C. and 90% relative humidity. The treated sticks were evaluated after there was sufficient growth of fungus on control sticks (i.e., untreated sticks) incubated in the same manner. The following score system was used: 0: Stick free of fungal/mold growth 1: Traces of fungal growth on the stick 2: Slight growth (5 to 25% of the surface covered with fungal growth) 3: Moderate growth (25 to 50% covered with fungal growth) 4. Vigorous to maximum fungal growth (more than 50% growth) […]

[3] = A. amstelodami, read-out: MIC (ppm) against A. amstelodami
[4] = Aspergillus niger, A. niger, read-out: MIC (ppm) against A. niger
[5] = Aspergillus versicolor, A. versicolor, read-out: MIC (ppm) against A. versicolor
[6] = Aureobasidium pullulans, A. pullulans, read-out: MIC (ppm) against A. pullulans
[7] = C. pilifera, read-out: MIC (ppm) against C. pilifera
[8] = Cladosporium cladosporioides, C. cladosporioides, read-out: MIC (ppm) against C. cladosporioides
[9] = Fusarium solani, F. solani, read-out: MIC (ppm) against F. solani
[10] = Geotrichum candidum, G. candidum, read-out: MIC (ppm) against G. candidum
[11] = P. purpurogenum, read-out: MIC (ppm) against P. purpurogenum
[12] = P. violacea, read-out: MIC (ppm) against P. violacea
[13] = Paecilomyces variotii, P. variotii, read-out: MIC (ppm) against P. variotii
[14] = S. atra, read-out: MIC (ppm) against S. atra
[15] = S. entoxylina, read-out: MIC (ppm) against S. entoxylina
[16] = Trichoderma viride, T. viride, read-out: MIC (ppm) against T. viride
[17] = U. atrum, read-out: MIC (ppm) against U. atrum

Row | Compound | MIC (ppm) against A. amstelodami ([1]; A. amstelodami) [ppm] | MIC (ppm) against A. niger ([1]; A. niger) [ppm] | MIC (ppm) against A. pullulans ([1]; A. pullulans) [ppm] | MIC (ppm) against A. versicolor ([1]; A. versicolor) [ppm] | MIC (ppm) against C. cladosporioides ([1]; C. cladosporioides) [ppm] | MIC (ppm) against C. pilifera ([1]; C. pilifera) [ppm] | MIC (ppm) against F. solani ([1]; F. solani) [ppm] | MIC (ppm) against G. candidum ([1]; G. candidum) [ppm] | MIC (ppm) against P. purpurogenum ([1]; P. purpurogenum) [ppm] | MIC (ppm) against P. variotii ([1]; P. variotii) [ppm] | MIC (ppm) against P. violacea ([1]; P. violacea) [ppm] | MIC (ppm) against S. atra ([1]; S. atra) [ppm] | Threshold concentration (ppm), A. niger, score 0 [2] [ppm] | Threshold concentration (ppm), A. niger, score 1-2 [2] | Threshold concentration (ppm), Aureobasidium, score 0 [2] [ppm] | Threshold concentration (ppm), Aureobasidium, score 1-2 [2] | Threshold concentration (ppm), Sclerophoma, score 0 [2] [ppm] | Threshold concentration (ppm), Sclerophoma, score 1-2 [2] | Threshold concentration (ppm), Trichoderma, score 0 [2] [ppm] | Threshold concentration (ppm), Trichoderma, score 1-2 [2] | also measured
1 | N#Cc1ccc(C2=NOCCS2(=O)=O)s1 [Compound 58] | 5 | 5 | 25 | 5 | 10 | 5 | 10 | 25 | 10 | 25 | 25 | 5 | 500 | <250 ppm | >1000 | 500-1000 ppm | 100 | <50 ppm | 5000 | 1000-2500 ppm | MIC (ppm) against S. entoxylina ([1]; S. entoxylina): 5 ppm; MIC (ppm) against T. viride ([1]; T. viride): 25 ppm; MIC (ppm) against U. atrum ([1]; U. atrum): 10 ppm
2 | N#Cc1ccc(C2=NOCC[S+]2[O-])s1 (stereo not shown) [Compound 57] | 10 | 10 | >25 | 10 | 25 | 10 | 25 | 25 | 10 | 25 | 25 | 10 | 500 | <250 ppm | >1000 | 250-500 ppm | 100 | <50 ppm | 1000 | 500-1000 ppm | MIC (ppm) against S. entoxylina ([1]; S. entoxylina): 10 ppm; MIC (ppm) against T. viride ([1]; T. viride): >25 ppm; MIC (ppm) against U. atrum ([1]; U. atrum): 25 ppm
3 | CC1CS(=O)(=O)C(c2cccs2)=NO1 (stereo not shown) [Compound 51, 5,6-dihydro-6-methyl-3-(2-thienyl)-1,4,2-oxathiazine-4,4, dioxide] | – | – | – | – | – | – | – | – | – | – | – | – | 500 | 250-500 ppm | >1000 | 250-500 ppm | 100 | 50-100 ppm | 1000 | 500-1000 ppm | –
4 | [O-][S+]1CCON=C1c1nc2ccccc2s1 (stereo not shown) [Compound 85, 5,6-dihydro-3-(2-benzothiazolyl)-1,4,2-oxathiazine-4-oxide] | – | – | – | – | – | – | – | – | – | – | – | – | 1000 | <250 ppm | 1000 | 250-500 ppm | 100 | <50 ppm | 2500 | 1000-2500 ppm | MIC [1, 3]: 5 µg/mL (≈ 19.8 µM); MIC [1, 4]: 5 µg/mL (≈ 19.8 µM); MIC [1, 5]: 2.5 µg/mL (≈ 9.91 µM); MIC [1, 6]: 25 µg/mL (≈ 99.1 µM); MIC [1, 7]: 2.5 µg/mL (≈ 9.91 µM); MIC [1, 8]: 25 µg/mL (≈ 99.1 µM); MIC [1, 9]: 25 µg/mL (≈ 99.1 µM); MIC [1, 10]: 10 µg/mL (≈ 39.6 µM); MIC [1, 11]: 10 µg/mL (≈ 39.6 µM); MIC [1, 12]: 10 µg/mL (≈ 39.6 µM); MIC [1, 13]: 25 µg/mL (≈ 99.1 µM); MIC [1, 14]: 2.5 µg/mL (≈ 9.91 µM); MIC [1, 15]: 5 µg/mL (≈ 19.8 µM); MIC [1, 16]: 25 µg/mL (≈ 99.1 µM); MIC [1, 17]: 10 µg/mL (≈ 39.6 µM)
5 | [O-][S+]1CCON=C1c1ccc(Cl)s1 (stereo not shown) [Compound 60, 3-(5-Chloro-2-thienyl)-5.6-dihydro-1.4.2-oxathiazine-4-oxide] | 5 | 5 | 25 | 2.5 | 25 | 5 | 10 | 25 | 25 | 10 | 10 | 5 | 500 | <250 ppm | 1000 | 100-250 ppm | 100 | <50 ppm | 2500 | 500-1000 ppm | MIC (ppm) against S. entoxylina ([1]; S. entoxylina): 5 ppm; MIC (ppm) against T. viride ([1]; T. viride): 25 ppm; MIC (ppm) against U. atrum ([1]; U. atrum): 10 ppm
6 | Cc1ccc2oc(C3=NOCC[S+]3[O-])nc2c1 (stereo not shown) [Compound 89] | – | – | – | – | – | – | – | – | – | – | – | – | 500 | 250-500 ppm | >1000 | 100-250 ppm | 250 | <50 ppm | 2500 | 1000-2500 ppm | –
7 | [O-][S+]1CCON=C1c1nc2ccccc2o1 (stereo not shown) [Compound 81] | – | – | – | – | – | – | – | – | – | – | – | – | 500 | 250-500 ppm | >1000 | 250-500 ppm | 250 | <50 ppm | 2500 | 500-1000 ppm | –
8 | CCOC(=O)c1ccc(C2=NOCC[S+]2[O-])s1 (stereo not shown) [Compound 54] | – | – | – | – | – | – | – | – | – | – | – | – | 500 | <250 ppm | 500 | 250-500 ppm | 100 | <50 ppm | 5000 | 500-1000 ppm | –
9 | O=S1(=O)CCON=C1c1nc2ccccc2s1 [Compound 83, 5,6-dihydro-3-(2-benzothiazolyl)-1,4,2-oxathiazine 4,4-dioxide] | – | – | – | – | – | – | – | – | – | – | – | – | – | – | – | – | – | – | – | – | MIC [1, 3]: > 25 µg/mL; MIC [1, 4]: > 25 µg/mL; MIC [1, 5]: 25 µg/mL (≈ 93.2 µM); MIC [1, 6]: > 25 µg/mL; MIC [1, 7]: 10 µg/mL (≈ 37.3 µM); MIC [1, 8]: > 25 µg/mL; MIC [1, 9]: > 25 µg/mL; MIC [1, 10]: > 25 µg/mL; MIC [1, 11]: > 25 µg/mL; MIC [1, 12]: > 25 µg/mL; MIC [1, 13]: > 25 µg/mL; MIC [1, 14]: 5 µg/mL (≈ 18.6 µM); MIC [1, 15]: 10 µg/mL (≈ 37.3 µM); MIC [1, 16]: > 25 µg/mL; MIC [1, 17]: > 25 µg/mL
